Data on 5 compounds can be found in paper PMC7754409 (Journal of Clinical Pharmacology, 2020).

As usually defined, the AUC(0-inf) is total exposure, with the tail of the curve extrapolated. A high value points to high exposure.

Data set [1] is classed as in vivo, human. The settings on record: for AUC(0-inf): human, plasma, AUCinf, GM (CV%), total AUCinf; for distribution of exposure (AUCinf, Cmax) across Child-Pugh classifications: subjects with normal NCIc, box plots Figures 2A, 3.
For data set [2] the following is noted: cited from earlier work.
Where [3] appears, read: any degree of HI based on Child-Pugh.
[4] abbreviates: Child-Pugh mild and moderate HI.

Read-outs that look alike come from different tables or passages of the source.

Consider `COc1cc(Nc2c(C#N)cnc3cc(OCCCN4CCN(C)CC4)c(OC)cc23)c(Cl)cc1Cl` [Bosutinib, bosutinib], for which the “higher AUCinf compared with normal NCIc hepatic function” value in data set [1] (NCIc mild HI) came to 40%. Also, the AUC(0-inf) in data set [1] (Child-Pugh mild HI group) is 1940 ng·h/mL; in data set [1] (Child-Pugh moderate HI group) it was 1730 ng·h/mL; in data set [1] (Child-Pugh severe HI group), 1660 ng·h/mL; in data set [1] (NCIc mild group) it was 1580 ng·h/mL; in data set [1] (NCIc moderate group), 1860 ng·h/mL; in data set [1] (NCIc normal group) it was 1130 ng·h/mL. In addition, in data set [1] (NCIc severe group), the AUC(0-inf) came to 1350 ng·h/mL. The “distribution of exposure (AUCinf, Cmax) across Child-Pugh classifications” value in data set [1] is “higher exposure”. The “AUCinf in Child-Pugh mild HI compared with Child-Pugh normal” value in data set [1] (within subjects with normal NCI hepatic function) is given as about 2 fold. Also, in data set [2] (setting [3]), the “higher exposure compared with normal hepatic function” value is about 2 fold. Moreover, the “plasma elimination half-life compared with normal hepatic function” value in data set [2] (setting [3]) is “longer”.
As for `CCN(CC)CCNC(=O)c1c(C)[nH]c(/C=C2\C(=O)Nc3ccc(F)cc32)c1C` [Sunitinib, sunitinib], the AUC(0-inf) in data set [1] (Child-Pugh mild HI group) turned out to be 1510 ng·h/mL; in data set [1] (Child-Pugh moderate HI group) it was 1480 ng·h/mL; in data set [1] (NCIc mild group) it was 1690 ng·h/mL; in data set [1] (NCIc moderate group), 1530 ng·h/mL; in data set [1] (NCIc normal group), 1340 ng·h/mL. The “effect of HI on sunitinib exposure (AUCinf and Cmax) versus normal” value in data set [2] (setting [4]) is given as “did not alter”.
As to `CNC(=O)c1ccccc1Sc1ccc2c(/C=C/c3ccccn3)n[nH]c2c1` [Axitinib, axitinib], the AUC(0-inf) in data set [1] (Child-Pugh mild HI group) worked out at 122 ng·h/mL; in data set [1] (Child-Pugh moderate HI group), 304 ng·h/mL; in data set [1] (NCIc mild group) it was 210 ng·h/mL; in data set [1] (NCIc moderate group), 410 ng·h/mL; in data set [1] (NCIc normal group), 137 ng·h/mL. Also, in data set [1], the “distribution of exposure (AUCinf, Cmax) across Child-Pugh classifications” value is “appeared similar”. In addition, in data set [2] (Child-Pugh mild HI), the “effect of HI on axitinib exposure (Cmax and AUCinf) versus normal” value is “did not affect”. Moreover, in data set [2] (Child-Pugh moderate HI), the “higher AUCinf (exposure) compared with normal” value is 2 fold.
Consider `CC(=O)c1c(C)c2cnc(Nc3ccc(N4CCNCC4)cn3)nc2n(C2CCCC2)c1=O` [Palbociclib, palbociclib], for which the “unbound AUCinf of mild group compared with normal hepatic function” value in data set [1] (via either classification (Child-Pugh or NCIc)) was “overall similar”. Also, the “mean fraction unbound in plasma” value in data set [2] (across Child-Pugh hepatic function groups) is recorded as “increased with worsening hepatic function”.
As to `COc1cc2ncnc(Nc3ccc(F)c(Cl)c3)c2cc1NC(=O)/C=C/CN1CCCCC1` [Dacomitinib, dacomitinib], in data set [1] (based on either classification system (Child-Pugh or NCIc)), the “exposure (AUCinf and Cmax) of mild and moderate groups compared with normal hepatic function” value was “similar”. Also, the AUC(0-inf) in data set [1] (Child-Pugh mild HI group) stood at 811 ng·h/mL; in data set [1] (Child-Pugh moderate HI group) it was 682 ng·h/mL; in data set [1] (NCIc mild group) it was 753 ng·h/mL; in data set [1] (NCIc moderate group), 583 ng·h/mL; in data set [1] (NCIc normal group) it was 800 ng·h/mL; in data set [1] (NCIc severe group) it was 685 ng·h/mL. Moreover, in data set [2] (setting [4]), the “effect of HI on dacomitinib exposure versus normal” value is reported as “did not alter”.
